Test results reported in ChEMBL document CHEMBL5625206, “Design, synthesis, and evaluation of novel pleuromutilin aryl acrylate derivatives as promising broad-spectrum antibiotics especially for combatting multi-drug resistant gram-negative bacteria” (Eur J Med Chem, 2023).
Values after ≈ are worked out from the molar mass of the structure shown. Active and inactive are the calls of the source. No cut-off for these calls is given here.

How the values were obtained:
[1] = test system: Mycoplasmopsis synoviae; assay: Anti-mycoplasma activity against Mycoplasmopsis synoviae MS-MVU1852-NCTC10124 assessed as bacterial growth inhibition incubated for 7 days; type: functional; settings: MS-MVU1852-NCTC10124, 168 h, time 7 day
[2] = test system: Escherichia coli; assay: Induction of extracellular electrical conductivity in Escherichia coli ATCC 25922 at MIC incubated for 6 hrs; type: functional, organism-based
[3] = test system: Escherichia coli; assay: Induction of cell damage in Escherichia coli ATCC 25922 assessed as intracellular pH at 2 times MIC incubated for 30 mins by fluorescence based analysis (reference value: 6.05 +/- 0.10); type: functional; settings: 0.5 h
[4] = test system: Mesomycoplasma hyorhinis; assay: Anti-mycoplasma activity against Mycoplasma hyorhinis BTS-7-NCTC10130 assessed as bacterial growth inhibition incubated for 7 days; type: functional; settings: BTS-7-NCTC10130, 168 h, time 7 day
[5] = test system: Enterococcus; assay: Antibacterial activity against vancomycin-resistant Enterococcus 80 clinical isolate assessed as bacterial growth inhibition incubated for 24 hrs by CLSI based broth microdilution method; type: functional
[6] = Toxicity in fasted male Sprague-Dawley rat assessed as relative heart weight ratio at 331 mg/kg, IG measured for 14 days (reference value: 0.396 +/- 0.043); type: organism-based; settings: in vivo, po, 336 h, time 14 day
[7] = Toxicity in fasted Sprague-Dawley rat assessed as mortality rate at 500 mg/kg, IG measured for 14 days; type: organism-based; settings: in vivo, po, time 14 day
[8] = Toxicity in fasted male Sprague-Dawley rat assessed as animal growth rate at 148 mg/kg, IG measured for 14 days (reference value: 46.53 +/- 3.19 g); type: organism-based; settings: in vivo, po, 336 h, time 14 day
[9] = Toxicity in fasted male Sprague-Dawley rat assessed as relative kidney weight ratio at 224 mg/kg, IG measured for 14 days (reference value: 0.820 +/- 0.072); type: organism-based; settings: in vivo, po, 336 h, time 14 day
[10] = Toxicity in fasted female Sprague-Dawley rat assessed as relative heart weight ratio at 100 mg/kg, IG measured for 14 days (reference value: 0.429 +/- 0.016); type: organism-based; settings: in vivo, po, 336 h, time 14 day
[11] = Toxicity in fasted male Sprague-Dawley rat assessed as relative heart weight ratio at 100 mg/kg, IG measured for 14 days (reference value: 0.396 +/- 0.043); type: organism-based; settings: in vivo, po, 336 h, time 14 day
[12] = test system: Staphylococcus aureus; assay: Inhibition of biofilm formation of methicillin-resistant Staphylococcus aureus ATCC 33591 incubated for 24 hrs by crystal violet staining based analysis; type: functional, organism-based
[13] = test system: Escherichia coli; assay: Inhibition of biofilm formation of Escherichia coli ATCC 25922 incubated for 24 hrs by crystal violet staining based analysis; type: functional, organism-based
[14] = Toxicity in fasted female Sprague-Dawley rat assessed as animal growth rate at 331 mg/kg, IG measured for 14 days (reference value: 29.85 +/- 4.97 g); type: organism-based; settings: in vivo, po, 336 h, time 14 day
[15] = test system: Acinetobacter baumannii; assay: Antibacterial activity against Acinetobacter baumannii ATCC 19606 assessed as bacterial growth inhibition incubated for 24 hrs by CLSI based broth microdilution method; type: functional
[16] = Toxicity in fasted female Sprague-Dawley rat assessed as relative kidney weight ratio at 100 mg/kg, IG measured for 14 days (reference value: 0.802 +/- 0.031); type: organism-based; settings: in vivo, po, 336 h, time 14 day
[17] = Toxicity in fasted female Sprague-Dawley rat assessed as body weight at 500 mg/kg, IG measured after 14 days (reference value: 214.3 +/- 9.8 g); type: organism-based; settings: in vivo, po, 336 h, time 14 day
[18] = Toxicity in fasted male Sprague-Dawley rat assessed as body weight at 500 mg/kg, IG measured on same day (reference value: 212.7 +/- 13.2 g); type: organism-based; settings: in vivo, po
[19] = Toxicity in Sprague-Dawley rat assessed as abnormal clinical symptoms at 10 to 100 mg/kg, IG measured for 14 days; type: organism-based; settings: in vivo, po, 336 h, dose 10-100 mg/kg, time 14 day
[20] = Toxicity in fasted Sprague-Dawley rat assessed as mortality rate at 224 mg/kg, IG measured for 14 days; type: organism-based; settings: in vivo, po, time 14 day
[21] = Cmax in fasted Sprague-Dawley rat at 1 mg/kg, iv by LC-MS/MS analysis; type: ADME, organism-based; settings: in vivo
[22] = test system: Escherichia coli; assay: Induction of cell damage in Escherichia coli ATCC 25922 assessed as fold increase in extracellular ATP concentration at MIC incubated for 30 mins by fluorescence based analysis relative to control; type: functional; settings: 0.5 h
[23] = Toxicity in fasted male Sprague-Dawley rat assessed as body weight at 224 mg/kg, IG measured after 7 days (reference value: 260.5 +/- 12.7 g); type: organism-based; settings: in vivo, po, 168 h, time 7 day
[24] = Toxicity in fasted male Sprague-Dawley rat assessed as body weight at 500 mg/kg, IG measured after 7 days (reference value: 260.5 +/- 12.7 g); type: organism-based; settings: in vivo, po, 168 h, time 7 day
[25] = Toxicity in fasted male Sprague-Dawley rat assessed as relative heart weight ratio at 224 mg/kg, IG measured for 14 days (reference value: 0.396 +/- 0.043); type: organism-based; settings: in vivo, po, 336 h, time 14 day
[26] = Toxicity in fasted male Sprague-Dawley rat assessed as body weight at 331 mg/kg, IG measured after 7 days (reference value: 260.5 +/- 12.7 g); type: organism-based; settings: in vivo, po, 168 h, time 7 day
[27] = Toxicity in fasted male Sprague-Dawley rat assessed as animal growth rate at 500 mg/kg, IG measured for 14 days (reference value: 46.53 +/- 3.19 g); type: organism-based; settings: in vivo, po, 336 h, time 14 day
[28] = Toxicity in fasted female Sprague-Dawley rat assessed as body weight at 500 mg/kg, IG measured after 7 days (reference value: 188.2 +/- 9.2 g); type: organism-based; settings: in vivo, po, 168 h, time 7 day
[29] = test system: Staphylococcus epidermidis; assay: Antibacterial activity against Staphylococcus epidermidis ATCC 12228 assessed as bacterial growth inhibition incubated for 24 hrs by CLSI based broth microdilution method; type: functional
[30] = test system: Escherichia coli; assay: Bactericidal activity against Escherichia coli ATCC 25922 at 4 to 8 times MIC incubated for 8 to 12 hrs by time kill assay relative to control; type: functional; settings: time 8-12 hrs
[31] = test system: Acinetobacter baumannii; assay: Antibacterial activity against carbapenem-resistant Acinetobacter baumannii 882 clinical isolate assessed as bacterial growth inhibition incubated for 24 hrs by CLSI based broth microdilution method; type: functional
[32] = test system: Escherichia coli; assay: Disruption of cell membrane integrity in Escherichia coli ATCC 25922 assessed as rough cell surface at MIC incubated for 4 hrs by FESEM analysis; type: functional, organism-based
[33] = Toxicity in fasted female Sprague-Dawley rat assessed as body weight at 100 mg/kg, IG measured on same day (reference value: 165.2 +/- 8.1 g); type: organism-based; settings: in vivo, po
[34] = Toxicity in fasted female Sprague-Dawley rat assessed as body weight at 224 mg/kg, IG measured after 7 days (reference value: 188.2 +/- 9.2 g); type: organism-based; settings: in vivo, po, 168 h, time 7 day
[35] = Toxicity in fasted female Sprague-Dawley rat assessed as body weight at 224 mg/kg, IG measured on same day (reference value: 165.2 +/- 8.1 g); type: organism-based; settings: in vivo, po
[36] = Toxicity in fasted male Sprague-Dawley rat assessed as relative testis weight ratio at 148 mg/kg, IG measured for 14 days (reference value: 0.993 +/- 0.052); type: organism-based; settings: in vivo, po, 336 h, time 14 day
[37] = test system: Escherichia coli; assay: Inhibition of biofilm formation of Escherichia coli ATCC 25922 at 8 times MIC incubated for 24 hrs by crystal violet staining based analysis relative to control; type: functional

**Q.** Which MIC [1] does the source give for `C=C[C@]1(C)C[C@@H](OC(=O)COC(=O)/C=C/c2ccc(N(C)C)cc2)[C@]2(C)[C@H](C)CC[C@]3(CCC(=O)[C@H]32)[C@@H](C)[C@@H]1O` here?
**A.** 0.008 µg/mL (≈ 0.0145 µM)

**Q.** And the Activity [2]?
**A.** Active

**Q.** And the pH [3]?
**A.** 3.23

**Q.** And the MIC [4]?
**A.** 0.004 µg/mL (≈ 0.00725 µM)

**Q.** What about the MIC [5] of the same compound?
**A.** 4 µg/mL (≈ 7.25 µM)

**Q.** What about the Ratio [6] of the same compound?
**A.** 0.374

**Q.** And the mortality at 336 h [7]?
**A.** 10%

**Q.** And the Activity [8]?
**A.** 45.63%

**Q.** And the Ratio [9]?
**A.** 0.808

**Q.** What about the Ratio [10] of the same compound?
**A.** 0.438

**Q.** And the Ratio [11]?
**A.** 0.396

**Q.** What about the inhibition [12] of the same compound?
**A.** Dose-Dependent Effect

**Q.** What about the inhibition [13] of the same compound?
**A.** Dose-Dependent Effect

**Q.** What about the Activity [14] of the same compound?
**A.** 27.6%

**Q.** What about the MIC [15] of the same compound?
**A.** 32 µg/mL (≈ 58 µM)

**Q.** And the Ratio [16]?
**A.** 0.81

**Q.** And the Activity [17]?
**A.** 207.7 g

**Q.** And the Activity [18]?
**A.** 208 g

**Q.** What about the Activity [19] of the same compound?
**A.** Non-Toxic

**Q.** What about the mortality at 336 h [20] of the same compound?
**A.** 0%

**Q.** And the Cmax [21]?
**A.** 9570 ng/mL

**Q.** And the “fold change (FC)” value [22]?
**A.** 6.12

**Q.** What about the Activity [23] of the same compound?
**A.** 257.1 g

**Q.** And the Activity [24]?
**A.** 251.3 g

**Q.** What about the Ratio [25] of the same compound?
**A.** 0.38

**Q.** And the Activity [26]?
**A.** 268 g

**Q.** And the Activity [27]?
**A.** 43.65%

**Q.** What about the Activity [28] of the same compound?
**A.** 181.3 g

**Q.** What about the MIC [29] of the same compound?
**A.** 1 µg/mL (≈ 1.81 µM)

**Q.** And the Activity [30]?
**A.** 100%

**Q.** What about the MIC [31] of the same compound?
**A.** 64 µg/mL (≈ 116 µM)

**Q.** And the Activity [32]?
**A.** Active

**Q.** What about the Activity [33] of the same compound?
**A.** 163.6 g

**Q.** And the Activity [34]?
**A.** 191.2 g

**Q.** What about the Activity [35] of the same compound?
**A.** 168.5 g

**Q.** What about the Ratio [36] of the same compound?
**A.** 0.99

**Q.** And the “inhibition (INH)” value [37]?
**A.** 97.56%
